Experimental data from US20220280661A1, “GLUCOCORTICOID RECEPTOR RADIOLIGANDS AND METHODS FOR THEIR PREPARATION AND USE” (The Regents of the University of California, priority 2019, published 2022).

Columns and labels:
[1] = system: GR; test: Immunoblot of GR in mouse tissues after JG231 treatment; format: in vivo; conditions: 4 mg/kg/day for three days intraperitoneally
Source text: GR levels were not impacted in liver, kidneys, or muscle, as predicted based on the radiotracer biodistribution data.
(§1) The limitations of broad-spectrum GR modulators like corticosteroids are well known, and the severe side effects associated with their long term use (e.g. diabetes mellitus, osteoporosis) motivated drug development campaigns starting in the 1990s to identify safer GR modulators that selectively modulate GR activity (Sundahl, et al. Pharmacol. Ther. 2015, 152, 28-41). […] To test this concept, the biodistribution of ^18F-YJH08 was evaluated in mice after treatment with JG231 (FIGS. 10A and 10B). […] Using the same treatment strategy, mice were subjected to 4 mg/kg/day for three days intraperitoneally, and subsequently treated with ^18F-YJH08. […] In these regions, it appeared that JG231 suppressed radiotracer binding, perhaps indicative of GR degradation. […] Immunoblot studies corroborated the biodistribution data, showing approximately ˜50% reduction in GR expression levels due to JG231 treatment in brown fat, and no change in GR levels from other tissues, for example, kidneys, liver, and muscle (FIG. 10E). This is believed to be the first example of tissue specific GR degradation.

[2] = system: GR; test: 18F-YJH08 PET/biodistribution after JG231 treatment; format: in vivo, mouse; conditions: once daily for 3 days via intraperitoneal injection
Protocol: At right is shown a maximum intensity projection of supraspinal BAT and muscle from a representative mouse in either treatment arm. Mice (n=5/treatment arm) were treated with JG231 or vehicle once daily for 3 days via intraperitoneal injection.
The biodistribution data are representative of two independent experiments.
as §1, with “This is believed to be the first example of tissue specific GR degradation.” left out

[3] = system: GR; test: Immunoblot of GR in breast cancer cell lines treated with JG231; format: cell-based, human; conditions: 24 hours
Protocol: Cells were treated with the indicated dose for 24 hours.

CCn1c(=O)/c(=C2\Sc3cc(Cl)ccc3N2C)s/c1=C\c1scc[n+]1Cc1ccc(Br)s1.[Cl-] [JG231, 3-((5-bromothiophen-2-yl)methyl)-2-((Z)-((E)-5-(6-chloro-3-methylbenzo[d]thiazol-2(3H)-ylidene)-3-ethyl-4-oxothiazolidin-2-ylidene)methyl)thiazol-3-ium chloride]
GR levels in kidneys, liver, and muscle [1]: no change | reduction in GR expression levels in brown fat [1]: ~50% | effect on ^18F-YJH08 tissue uptake [2]: suppressed radiotracer uptake exclusively in the supraspinal brown fat pad | GR degradation (immunoblot), MCF7 ([3]; MCF7 cells): degrades GR | GR degradation (immunoblot), MDA MB 231 ([3]; MDA MB 231 cells): degrades GR
